Laboratory results: DBAASP
In brackets after ≈: the same amount, converted by molar mass. Values belong to the compound of their own block, whether it stands above or below them.

Key:
Experiment in all cases: ≥ marks a high value that may be exact or a test limit, other limits are often not marked, values filed in µg/mL are converted to µM
Bacillus subtilis = test system: Bacillus subtilis
Escherichia coli W160-37 = test system: Escherichia coli W160-37
Micrococcus luteus MT166 = test system: Micrococcus luteus MT166
[1] = test system: Pseudomonas putida NCIM 2102
[2] = test system: Saccharomyces cerevisiae ATCC 8530
[3] = test system: Staphylococcus aureus ATCC 8530
[4] = test system: Aspergillus awamori KCTC 6915
[5] = test system: Aspergillus flavus KCTC 6905
[6] = test system: Aspergillus fumigatus KCTC 6145
[7] = test system: Aspergillus parasiticus KCTC 6598
[8] = test system: Bacillus subtilis KCTC 1918
[9] = test system: Bacillus subtilis KCTC 1998
[10] = test system: Candida albicans KCTC 7270
[11] = test system: Escherichia coli CCARM 1229
[12] = test system: Escherichia coli CCARM 1238
[13] = test system: Listeria monocytogenes ATCC 19115
[14] = test system: Listeria monocytogenes KCTC 3710
[15] = test system: Proteus vulgaris KCTC 2433
[16] = test system: Pseudomonas aeruginosa 3547
[17] = test system: Pseudomonas aeruginosa 4007
[18] = test system: Pseudomonas aeruginosa ATCC 15692
[19] = test system: Pseudomonas aeruginosa KCTC 1637
[20] = test system: Salmonella typhimurium CCARM 8009
[21] = test system: Salmonella typhimurium CCARM 8013
[22] = test system: Salmonella typhimurium KCTC 1926
[23] = test system: Staphylococcus aureus CCARM 3089
[24] = test system: Staphylococcus aureus CCARM 3114
[25] = test system: Staphylococcus aureus PBEL
[26] = test system: Staphylococcus epidermidis ATCC 12228
[27] = test system: Staphylococcus epidermidis KCTC 3096
[28] = test system: Trichosporon beigelii KCTC 7707
[29] = test system: Candida albicans ATCC 2002
[30] = test system: Candida albicans ATCC 90028
[31] = test system: Candida parapsilosis ATCC 22019
[32] = test system: Enterobacter cloacae ATCC 13047
[33] = test system: Enterococcus faecalis ATCC 29212
Escherichia coli 117 = test system: Escherichia coli 117
Escherichia coli 218 = test system: Escherichia coli 218
Escherichia coli 37 = test system: Escherichia coli 37
[34] = test system: Escherichia coli ATCC 25922
[35] = test system: Klebsiella pneumoniae ATCC 700603
Klebsiella pneumoniae = test system: Klebsiella pneumoniae
[36] = test system: Pseudomonas aeruginosa ATCC 27853
[37] = test system: Pseudomonas aeruginosa CMCCB 1010
Pseudomonas aeruginosa = test system: Pseudomonas aeruginosa
Shigella dysenteriae = test system: Shigella dysenteriae
Staphylococcus aureus 37 = test system: Staphylococcus aureus 37
[38] = test system: Staphylococcus aureus ATCC 25923
[39] = test system: Pseudomonas aeruginosa 253
[40] = test system: Pseudomonas aeruginosa 910
[41] = test system: Pseudomonas aeruginosa 919
[42] = test system: Pseudomonas aeruginosa PAO1

MIC (Bacillus subtilis): 22.3 µM (≈ 29.9 µg/mL) | MIC (Escherichia coli W160-37): 29.8 µM (≈ 39.9 µg/mL) | MIC (Micrococcus luteus MT166): 14.9 µM (≈ 20 µg/mL) | MIC [1]: 29.8 µM (≈ 39.9 µg/mL) | MIC [2]: ≥ 59.5 µM | MIC [3]: 22.3 µM (≈ 29.9 µg/mL)
SMILES: CC[C@H](C)[C@@H]1NC(=O)[C@H](CCSC)NC(=O)[C@H]([C@@H](C)O)NC(=O)[C@@H](NC(=O)[C@@H](N)Cc2ccccc2)CSSC[C@@H](C(=O)N[C@@H](Cc2ccc(O)cc2)C(N)=O)NC(=O)[C@H](CCCN=C(N)N)NC(=O)[C@@H]2CCCN2C(=O)[C@H]([C@@H](C)CC)NC(=O)[C@@H]2CCCN2C1=O [FCTMIPIPRCY]

MIC [4]: 16 µM (≈ 33 µg/mL) | MIC [5]: 16 µM (≈ 33 µg/mL) | MIC [6]: 4 µM (≈ 8.25 µg/mL) | MIC [7]: 8 µM (≈ 16.5 µg/mL) | MIC [8]: 2 µM (≈ 4.13 µg/mL) | MIC [9]: 2 µM (≈ 4.13 µg/mL) | MIC [10]: 8 µM (≈ 16.5 µg/mL) | MIC [11]: 2 µM (≈ 4.13 µg/mL) | MIC [12]: 2 µM (≈ 4.13 µg/mL) | MIC [13]: 2 µM (≈ 4.13 µg/mL) | MIC [14]: 2 µM (≈ 4.13 µg/mL) | MIC [15]: 8 µM (≈ 16.5 µg/mL) | MIC [16]: 4 µM (≈ 8.25 µg/mL) | MIC [17]: 1 µM (≈ 2.06 µg/mL) | MIC [18]: 2 µM (≈ 4.13 µg/mL) | MIC [19]: 2 µM (≈ 4.13 µg/mL) | MIC [20]: 4 µM (≈ 8.25 µg/mL) | MIC [21]: 1 µM (≈ 2.06 µg/mL) | MIC [22]: 2 µM (≈ 4.13 µg/mL) | MIC [23]: 2 µM (≈ 4.13 µg/mL) | MIC [24]: 2 µM (≈ 4.13 µg/mL) | MIC [25]: 1 µM (≈ 2.06 µg/mL) | MIC [26]: 2.83 µM (≈ 5.83 µg/mL) | MIC [27]: 2.83 µM (≈ 5.83 µg/mL) | MIC [28]: 16 µM (≈ 33 µg/mL)
SMILES: CC[C@H](C)[C@H](NC(=O)[C@H](CCCCN)NC(=O)[C@H](CCCCN)NC(=O)[C@H](Cc1ccccc1)NC(=O)[C@H](CC(C)C)NC(=O)[C@H](CCCCN)NC(=O)[C@H](CCCCN)NC(=O)[C@H](CC(C)C)NC(=O)[C@H](CCCN=C(N)N)NC(=O)[C@H](CCCCN)NC(=O)[C@@H](N)Cc1ccccc1)C(=O)N[C@@H](Cc1c[nH]c2ccccc12)C(=O)N[C@@H](CC(N)=O)C(=O)N[C@@H](Cc1c[nH]c2ccccc12)C(=O)N[C@@H](CCCCN)C(N)=O [FKRLKKLFKKIWNWK]

MIC [29]: 7.32 µM (≈ 10 µg/mL) | MIC [30]: 7.32 µM (≈ 10 µg/mL) | MIC [31]: 29.3 µM (≈ 40 µg/mL) | MIC [32]: 7.32 µM (≈ 10 µg/mL) | MIC [33]: 3.66 µM (≈ 5 µg/mL) | MIC (Escherichia coli 117): 14.6 µM (≈ 20 µg/mL) | MIC (Escherichia coli 218): 7.32 µM (≈ 10 µg/mL) | MIC (Escherichia coli 37): 3.66 µM (≈ 5 µg/mL) | MIC [34]: 14.6 µM (≈ 20 µg/mL) | MIC [35]: 14.6 µM (≈ 20 µg/mL) | MIC (Klebsiella pneumoniae): 7.32 µM (≈ 10 µg/mL) | MIC [36]: 29.3 µM (≈ 40 µg/mL) | MIC [37]: 14.6 µM (≈ 20 µg/mL) | MIC (Pseudomonas aeruginosa): 7.32 µM (≈ 10 µg/mL) | MIC (Shigella dysenteriae): 14.6 µM (≈ 20 µg/mL) | MIC (Staphylococcus aureus 37): 7.32 µM (≈ 10 µg/mL) | MIC [38]: 3.66 µM (≈ 5 µg/mL)
SMILES: CC[C@H](C)[C@H](NC(=O)[C@H](C)NC(=O)[C@H](CCCCN)NC(=O)[C@H](CC(C)C)NC(=O)[C@@H](N)CC(N)=O)C(=O)N[C@@H](C)C(=O)N[C@@H](C)C(=O)N[C@@H](CC(C)C)C(=O)N[C@@H](C)C(=O)N[C@@H](CCCCN)C(=O)N[C@@H](CCCCN)C(=O)N[C@@H](CC(C)C)C(=O)N[C@@H](CC(C)C)C(=O)O [NLKAIAALAKKLL]

MIC [39]: 16 µM (≈ 25.5 µg/mL) | MIC [40]: ≥ 32 µM | MIC [41]: ≥ 32 µM | MIC [42]: 16 µM (≈ 25.5 µg/mL)
SMILES: CC[C@H](C)[C@H](NC(=O)[C@H](CCCN=C(N)N)NC(=O)[C@H](Cc1c[nH]c2ccccc12)NC(=O)[C@H](CC(C)C)NC(=O)[C@@H](N)CCCN=C(N)N)C(=O)N[C@H](C(=O)N[C@H](C(=O)N[C@H](C(=O)N[C@@H](CCCN=C(N)N)C(=O)N[C@H](C(=O)N[C@@H](CCCCN)C(=O)N[C@@H](CCCN=C(N)N)C(N)=O)C(C)C)[C@@H](C)CC)C(C)C)C(C)C [RLWRIVVIRVKR]
